Measurements from patent publication US20230081720A1, “MCL-1 INHIBITOR ANTIBODY-DRUG CONJUGATES AND METHODS OF USE” (NOVARTIS AG, priority 2019, published 2023).
Where a name gives a salt, the structure may show the parent alone. Read-outs that look alike come from different tables or passages of the source.

Key:
[1] = test system: EOL-1; type: cell-based
Protocol: (§1) Cell lines were cultured in media that is optimal for their growth at 5% CO2, 37° C. in a tissue culture incubator. Prior to seeding for the proliferation assay, the cells were split at least 2 days before the assay to ensure optimal growth density. […] Cell viability and cell density were determined using a cell counter (Vi-Cell XR Cell Viability Analyzer, Beckman Coulter). […] Cells were seeded at a density of 1,000 cells per well in 45 μL of standard growth media. Plates were incubated at 5% CO2, 37° C. overnight in a tissue culture incubator. […] Each drug concentration was tested in quadruplets. […] Plates were incubated at room temperature for 10 minutes to stabilize luminescent signals prior to reading using a luminescence reader (EnVision Multilabel Plate Reader, PerkinElmer). To evaluate the effect of the drug treatments, luminescent counts from wells containing untreated cells (100% viability) were used to normalize treated samples.

[2] = test system: NOMO-1; type: cell-based
Protocol: as §1

[3] = CD74 ADC with the named linker-payload, 5 days
[4] = CD74 ADC with the named linker-payload, 5 days, read-out: EOL-1 IC50
[5] = CD74 ADC with the named linker-payload, 5 days, read-out: NOMO-1 IC50

In the case of `COc1ccccc1-c1nccc(COc2ccccc2C[C@@H](Oc2ncnc3sc(-c4ccc(F)cc4)c(-c4ccc(OCCN5CC[N+](C)(Cc6ccc(NC(=O)[C@H](CCCNC(N)=O)NC(=O)[C@@H](NC(=O)CCOCCN7C(=O)C=CC7=O)C(C)C)cc6CN(C)C(=O)CN(C)C(=O)CN(C)C(=O)CN(C)C(=O)CN(C)C(=O)CN(C)C(=O)CN(C)C(=O)CN(C)C(=O)CN(C)C(=O)CN(C)C(=O)CN(C)C(=O)CN(C)C(=O)CN(C)C(=O)CCC(=O)O)CC5)c(Cl)c4C)c23)C(=O)O)n1` [L35-P1], the IC50 [1] is reported as 894 pM, the “EOL-1 Amax” value [1, 3] is reported as 75.56 and the IC50 [2] is reported as 6900 pM. For the same compound, the “NOMO-1 Amax” value [2, 3] was 62.73.

`COc1ccccc1-c1nccc(COc2ccccc2C[C@@H](Oc2ncnc3sc(-c4ccc(F)cc4)c(-c4ccc(OCCN5CC[N+](C)(Cc6ccc(NC(=O)[C@H](CCCNC(N)=O)NC(=O)[C@@H](NC(=O)CCOCCN7C(=O)C=CC7=O)C(C)C)cc6COCc6cn(CCOC(=O)NS(=O)(=O)NCCOCCOCCOCCC(=O)O)nn6)CC5)c(Cl)c4C)c23)C(=O)O)n1` [L60-P1, trifluoroacetate] was tested, and the “EOL-1 Amax” value [1, 3] was 79.04, the IC50 [1, 4] was 535 pM and the “NOMO-1 Amax” value [2, 3] was 76.94. It also gave an IC50 [2, 5] of 2620 pM.

For `COc1ccccc1-c1nccc(COc2ccccc2C[C@@H](Oc2ncnc3sc(-c4ccc(F)cc4)c(-c4ccc(OCCN5CC[N+](C)(Cc6ccc(NC(=O)[C@H](CCCNC(N)=O)NC(=O)[C@@H](NC(=O)CCOCCN7C(=O)C=CC7=O)C(C)C)cc6COCc6cn(CCOC(=O)NS(=O)(=O)NCCOCCOCCO[C@@H]7O[C@H](CO)[C@@H](O)[C@H](O)[C@H]7O)nn6)CC5)c(Cl)c4C)c23)C(=O)O)n1` [L62-P1, trifluoroacetate], the “EOL-1 Amax” value [1, 3] was 83.03, the IC50 [1, 4] was 771 pM and the “NOMO-1 Amax” value [2, 3] was 65.18. The IC50 [2, 5] was 3410 pM.

For `COc1ccccc1-c1nccc(COc2ccccc2C[C@@H](Oc2ncnc3sc(-c4ccc(F)cc4)c(-c4ccc(OCCN5CC[N+](C)(Cc6ccc(NC(=O)[C@H](CCCNC(N)=O)NC(=O)[C@@H](NC(=O)CCOCCN7C(=O)C=CC7=O)C(C)C)cc6COCc6cn(CCOC(=O)NS(=O)(=O)NCCOCCO[C@@H]7O[C@H](CO)[C@@H](O)[C@H](O)[C@H]7O)nn6)CC5)c(Cl)c4C)c23)C(=O)O)n1` [L63-P1, trifluoroacetate], the “NOMO-1 Amax” value [2, 3] was 61.25 and the IC50 [2, 5] was 714 pM.

`COc1ccccc1-c1nccc(COc2ccccc2C[C@@H](Oc2ncnc3sc(-c4ccc(F)cc4)c(-c4ccc(OCCN5CC[N+](C)(Cc6ccc(NC(=O)[C@H](CCCNC(N)=O)NC(=O)[C@@H](NC(=O)CCOCCN7C(=O)C=CC7=O)C(C)C)cc6CN(C)C(=O)CN(CC(=O)O)CC(=O)O)CC5)c(Cl)c4C)c23)C(=O)O)n1` [L67-P1, 1-(2-((2-(bis(carboxymethyl)amino)-N-methylacetamido)methyl)-4-((S)-2-((S)-2-(3-(2-(2,5-dioxo-2,5-dihydro-1H-pyrrol-1-yl)ethoxy)propanamido)-3-methylbutanamido)-5-ureidopentanamido)benzyl)-4-(2-(4-(4-((R)-1-carboxy-2-(2-((2-(2-methoxyphenyl)pyrimidin-4-yl)methoxy)phenyl)ethoxy)-6-(4-fluorophenyl)thieno[2,3-d]pyrimidin-5-yl)-2-chloro-3-methylphenoxy)ethyl)-1-methylpiperazin-1-ium] was tested, and the IC50 [1] was 261 pM, the “EOL-1 Amax” value [1, 3] was 119.3 and the IC50 [2] was 2490 pM. For the same compound, the “NOMO-1 Amax” value [2, 3] was 79.39.

`COc1ccccc1-c1nccc(COc2ccccc2C[C@@H](Oc2ncnc3sc(-c4ccc(F)cc4)c(-c4ccc(OCCN5CC[N+](C)(Cc6ccc(NC(=O)[C@H](CCCNC(N)=O)NC(=O)[C@@H](NC(=O)CCOCCN7C(=O)C=CC7=O)C(C)C)cc6CN(C)C(=O)C[C@H](NC(=O)[C@@H]6O[C@H](O)[C@@H](O)[C@H](O)[C@H]6O)C(=O)O)CC5)c(Cl)c4C)c23)C(=O)O)n1` [L68-P1] was tested, and the “EOL-1 Amax” value [1, 3] was 127.3, the IC50 [1, 4] was 788 pM and the “NOMO-1 Amax” value [2, 3] was 91.25. It also gave an IC50 [2, 5] of 6910 pM.

With `COc1ccccc1-c1nccc(COc2ccccc2C[C@@H](Oc2ncnc3sc(-c4ccc(F)cc4)c(-c4ccc(OCCN5CC[N+](C)(Cc6ccc(NC(=O)[C@H](CCCNC(N)=O)NC(=O)[C@@H](NC(=O)CCOCCN7C(=O)C=CC7=O)C(C)C)cc6CN(C)C(=O)C[C@H](NC(=O)OC6O[C@H](C(=O)O)[C@@H](O)[C@H](O)[C@H]6O)C(=O)O)CC5)c(Cl)c4C)c23)C(=O)O)n1` (stereo partly shown) [L69-P1] the “EOL-1 Amax” value [1, 3] was 159.6, the IC50 [1, 4] was 704 pM and the “NOMO-1 Amax” value [2, 3] was 95.03. For the same compound, the IC50 [2, 5] was 14800 pM.

In the case of `COc1ccccc1-c1nccc(COc2ccccc2C[C@@H](Oc2ncnc3sc(-c4ccc(F)cc4)c(-c4ccc(OCCN5CC[N+](C)(Cc6ccc(NC(=O)[C@H](CCCNC(N)=O)NC(=O)[C@@H](NC(=O)CCOCCN7C(=O)C=CC7=O)C(C)C)cc6CN(C)C(=O)[C@H](CCC(=O)O)NC(=O)CS(=O)(=O)O)CC5)c(Cl)c4C)c23)C(=O)O)n1` [L71-P1, 4-(2-(4-(4-((R)-1-carboxy-2-(2-((2-(2-methoxyphenyl)pyrimidin-4-yl)methoxy)phenyl)ethoxy)-6-(4-fluorophenyl)thieno[2,3-d]pyrimidin-5-yl)-2-chloro-3-methylphenoxy)ethyl)-1-(2-(((S)-4-carboxy-N-methyl-2-(2-sulfoacetamido)butanamido)methyl)-4-((S)-2-((S)-2-(3-(2-(2,5-dioxo-2,5-dihydro-1H-pyrrol-1-yl)ethoxy)propanamido)-3-methylbutanamido)-5-ureidopentanamido)benzyl)-1-methylpiperazin-1-ium], the “EOL-1 Amax” value [1, 3] is reported as 93.09, the IC50 [1, 4] is reported as 341 pM and the “NOMO-1 Amax” value [2, 3] is reported as 53.62. The IC50 [2, 5] was 9820 pM.

With `COCCOCCOCCOCCOCCOCCOCCOCCOCCOCCOCCOCCC(=O)N[C@@H](CCC(=O)O)C(=O)N(C)Cc1cc(NC(=O)[C@H](CCCNC(N)=O)NC(=O)[C@@H](NC(=O)CCOCCN2C(=O)C=CC2=O)C(C)C)ccc1C[N+]1(C)CCN(CCOc2ccc(-c3c(-c4ccc(F)cc4)sc4ncnc(O[C@H](Cc5ccccc5OCc5ccnc(-c6ccccc6OC)n5)C(=O)O)c34)c(C)c2Cl)CC1` [L72-P1] the “EOL-1 Amax” value [1, 3] was 109.8, the IC50 [1, 4] was 386 pM and the “NOMO-1 Amax” value [2, 3] was 57.68.

In the case of `COc1ccccc1-c1nccc(COc2ccccc2C[C@@H](Oc2ncnc3sc(-c4ccc(F)cc4)c(-c4ccc(OCCN5CC[N+](C)(Cc6ccc(NC(=O)[C@H](CCCNC(N)=O)NC(=O)[C@@H](NC(=O)CCOCCN7C(=O)C=CC7=O)C(C)C)cc6CN(C)C(=O)[C@H](CCCCNC(=O)CS(=O)(=O)O)NC(=O)CS(=O)(=O)O)CC5)c(Cl)c4C)c23)C(=O)O)n1` [L78-P1, 4-(2-(4-(4-((R)-1-carboxy-2-(2-((2-(2-methoxyphenyl)pyrimidin-4-yl)methoxy)phenyl)ethoxy)-6-(4-fluorophenyl)thieno[2,3-d]pyrimidin-5-yl)-2-chloro-3-methylphenoxy)ethyl)-1-(4-((S)-2-((S)-2-(3-(2-(2,5-dioxo-2,5-dihydro-1H-pyrrol-1-yl)ethoxy)propanamido)-3-methylbutanamido)-5-ureidopentanamido)-2-(((S)-N-methyl-2,6-bis(2-sulfoacetamido)hexanamido)methyl)benzyl)-1-methylpiperazin-1-ium], the “EOL-1 Amax” value [1, 3] is reported as 87.22, the IC50 [1, 4] is reported as 430 pM and the “NOMO-1 Amax” value [2, 3] is reported as 53.4. It also gave an IC50 [2, 5] of 3740 pM.
